Values of other authors in US20110243859A1, “ENCAPSULATING SYSTEM FOR CEST IMAGING WITH CHELATE Q GREATER THAN OR EQUAL TO 2” (GUERBET, priority 2008, published 2011).

Settings: monomeric chelate

Row | Value q | Compound
1 | 1 | CC(O)CN1CCN(CC(=O)O)CCN(CC(=O)O)CCN(CC(=O)O)CC1 (stereo not drawn) [HP-DO3A]
2 | 2 | CC(CN(CC(=O)O)CC(=O)O)N(CC(=O)O)CC(=O)O (stereo not drawn) [MeDTA]
3 | 2 | CC(C(=O)O)N1CCN(C(C)C(=O)O)CCN(C(C)C(=O)O)CC1 (stereo not drawn) [NOTMA]
4 | 2 | NC1C(O)C(N)C(O)C(N)C1O (stereo not drawn) [Taci]
5 | 3.5 | texaphyrin [Tx]

The remaining lines, values behind:

Row | Compound | Value q
6 | CC1(N(CC(=O)O)CC(=O)O)CN(CC(=O)O)CCN(CC(=O)O)C1 [AAZTA] | 2
7 | O=C(O)CN1CCNCCN(CC(=O)O)CCNCC1 [DO2A] | 3
8 | O=C(O)CN1CCNCCN(CC(=O)O)CCN(CC(=O)O)CC1 [DO3A] | 2
9 | CC(C(=O)O)N1CCNCCN(C(C)C(=O)O)CCN(C(C)C(=O)O)CC1 (stereo not drawn) [DO3MA] | 2
10 | O=C(O)CN1CCN(CC(=O)O)CCN(CC(=O)O)CCN(CC(=O)O)CC1 [DOTA] | 1
11 | O=C(O)CN1CCN(CC(=O)O)Cc2cccc(n2)CN(CC(=O)O)CC1 [PCTA] | 2

Settings: spherical liposome, maximum accessible concentration inside

Row | Compound | Delta shift value
12 | CC(O)CN1CCN(CC(=O)[O-])CCN(CC(=O)[O-])CCN(CC(=O)[O-])CC1.[Tm+3] (stereo not drawn) [HP-DO3A-Tm] | 3.5 ppm
